ChEMBL document CHEMBL3871290, “3-Cyano-6-(5-methyl-3-pyrazoloamino) pyridines (Part 2): A dual inhibitor of Aurora kinase and tubulin polymerization” (Bioorg Med Chem Lett, 2016)
Active and inactive are the calls of the source. The rule behind the calls is not given here.

Columns and labels:
[1] = test system: Cc1ccc(OCCNc2nc(Nc3cc(C)[nH]n3)cc(C)c2C#N)cn1; details: Homo sapiens
Description: Activity at YES (unknown origin)

HCT-116 [2] = assay: Antitumor activity against human HCT116 cells xenografted subcutaneously in mouse assessed as tumor growth inhibition at 100 mg/kg, po qd after 14 days; type: functional, organism-based
HCT-116 [3] = assay: Antitumor activity against human HCT116 cells xenografted subcutaneously in mouse assessed as tumor growth inhibition at 30 mg/kg, po qd after 14 days; type: functional
Homo sapiens = species: Homo sapiens; assay: Inhibition of Aurora kinase (unknown origin) assessed as reduction in histone H3 phosphorylation at Ser10 residue
Sus scrofa = species: Sus scrofa; assay: Inhibition of pig brain tubulin polymerization at 10 uM in presence of GTP relative to control
[4] = test system: Cc1ccc(OCCNc2nc(Nc3cc(C)[nH]n3)cc(C)c2C#N)cn1; details: Homo sapiens; remark: listed apart in the source
Description: Activity at cSRC (unknown origin)

Tyrosine-protein kinase Yes (Homo sapiens), P07947, sequence (P07947 whole entry): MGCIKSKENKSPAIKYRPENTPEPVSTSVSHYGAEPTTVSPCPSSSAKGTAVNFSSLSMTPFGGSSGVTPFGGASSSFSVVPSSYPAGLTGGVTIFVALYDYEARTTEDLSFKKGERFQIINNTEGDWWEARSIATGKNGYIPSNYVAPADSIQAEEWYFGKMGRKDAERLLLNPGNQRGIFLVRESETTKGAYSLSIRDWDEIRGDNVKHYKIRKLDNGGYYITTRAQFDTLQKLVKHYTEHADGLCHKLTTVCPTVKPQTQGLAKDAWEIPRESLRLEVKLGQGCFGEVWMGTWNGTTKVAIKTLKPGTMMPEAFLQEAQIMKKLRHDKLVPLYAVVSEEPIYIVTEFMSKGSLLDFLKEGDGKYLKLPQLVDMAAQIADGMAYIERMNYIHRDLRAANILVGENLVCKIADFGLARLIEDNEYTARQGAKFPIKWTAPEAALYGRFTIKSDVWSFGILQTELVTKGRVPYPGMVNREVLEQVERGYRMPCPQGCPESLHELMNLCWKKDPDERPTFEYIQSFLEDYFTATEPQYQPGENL

“Tyrosine-protein kinase Yes (Homo sapiens), P07947” showed a Km [1] of 45 µM.

Work on `Cc1cc(Nc2cc(N3CCN(C)CC3)nc(Sc3ccc(NC(=O)C4CC4)cc3)n2)n[nH]1` yielded a TGI (HCT-116 [2]) of 68% and a TGI (HCT-116 [3]) of 60%.

With `Cc1ccc(OCCNc2nc(Nc3cc(C)[nH]n3)cc(C)c2C#N)cn1` the inhibition (Homo sapiens) was “Active” and the inhibition (Sus scrofa) was 63%.

For “Proto-oncogene tyrosine-protein kinase Src (Homo sapiens) (from UniProt P12931)”, the Km [4] was 200 µM.
